“And” between values parts separate entries of the source, which are not always exact repeats. Equal values may be shown once.
How the values were obtained:
[1] = system: Balb/c mice; settings: mouse, in vivo
[2] = system: C57BL/6J mice; settings: mouse, in vivo

C[C@@H]1CCN(C(=O)CC#N)C[C@@H]1N(C)c1ncnc2[nH]ccc12 [Tofacitinib]
Mean antigen-specific T-cells, IFNg+ (% of CD8) [1]: 13 % of CD8 and 12.9 % of CD8
Increase in luciferase expression by pretreatment [2]: ~60 fold

Reference: patent publication US12653883B2 (priority 2018, dated 2026)
